The experiment deals with memapsin 2 (Homo sapiens, UniProt P56817). Kind of experiment: Inhibition of memapsin 2 beta-secretase activity (fluorogenic substrate FS-2). The class given is biochemical. Particulars: memapsin 2, pH 4, 37° C., fluorogenic substrate FS-2; read-out: M2Ki. How it is done: Potency of compounds were determined by measurement of their inhibition of memapsin 2 activity toward a fluorescent substrate. Kinetic inhibition experiments were performed using the procedure as described in Ermolieff, et al. (Biochemistry 39:12450-12456 (2000), the teachings of which are incorporated hereby in their entirety). Briefly, assays were performed at pH 4, 37° C., by pre-incubation of memapsin 2 enzyme with compound for 20 minutes. Activity measurements were initiated by addition of a fluorogenic substrate FS-2 (Bachem Americas, Torrance, Calif.) MCA-SEVNLDAEFR-DNP (SEQ ID NO.: 2). The substrate was derived from 10 amino acids of the human amyloid precursor protein (APP), with the Swedish variant amino acids at the beta-secretase cleavage site. The terminal amino acid was modified from arginine to lysine to facilitate derivatization with a functional group for detection by autofluorescence. The amino acid sequence of the “core” peptide of the substrate is SEVNLDAEFK (SEQ ID NO.: 3). The amino terminus was derivatized with (7-methoxycoumarin-4-yl)acetyl (MCA), and the epsilon amine of the lysine side chain of the terminal residue (K in sequence SEVNLDAEFK (SEQ ID NO.: 3)) was derivatized with 2,4-dinitorphenyl (DNP).
memapsin 2, sequence (P56817 46-501): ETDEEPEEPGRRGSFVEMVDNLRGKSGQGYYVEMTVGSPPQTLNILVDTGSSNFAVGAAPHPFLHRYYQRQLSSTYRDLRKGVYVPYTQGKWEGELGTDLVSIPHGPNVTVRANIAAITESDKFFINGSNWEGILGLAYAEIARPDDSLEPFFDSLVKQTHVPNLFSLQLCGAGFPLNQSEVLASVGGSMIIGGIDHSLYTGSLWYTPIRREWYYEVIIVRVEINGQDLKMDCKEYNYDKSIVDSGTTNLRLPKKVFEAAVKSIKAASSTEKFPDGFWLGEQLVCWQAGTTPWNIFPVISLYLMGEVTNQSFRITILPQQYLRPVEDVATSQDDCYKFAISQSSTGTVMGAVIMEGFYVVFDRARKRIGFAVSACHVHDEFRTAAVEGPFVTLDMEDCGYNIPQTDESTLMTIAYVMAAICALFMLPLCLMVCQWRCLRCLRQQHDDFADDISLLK
Fluorescent signal increase over time was measured as a rate of hydrolysis of the peptide substrate. Inhibition of hydrolytic rate was expressed relative to uninhibited controls and fit to a model for tight-binding inhibitors (J. Bieth, in “Proteinase Inhibitors,” Bayer Symposium V, 463-469, 1974, which is herein incorporated by reference for all purposes in its entirety).

Bounds are passed on as bounds.

Take `Cc1csc(CN(C)C(=O)c2cc(C(=O)N[C@@H](Cc3ccccc3)[C@H](O)CNCc3cccc(C(F)(F)F)c3)cc(-c3cnco3)c2)n1` [Compound 219, N1-((2S,3R)-3-hydroxy-1-phenyl-4-(3-(trifluoromethyl)benzylamino)butan-2-yl)-N3-methyl-N3-((4-methylthiazol-2-yl)methyl)-5-(oxazol-5-yl)isophthalamide]: the Ki was less than 300 nM.
The value for `Cc1csc(CN(C)C(=O)c2cccc(C(=O)N[C@@H](Cc3ccccc3)[C@H](O)CNCc3cc(-c4ccncc4)cc(C(F)(F)F)c3)c2)n1` [Compound 275, N1-((2S,3R)-3-hydroxy-1-phenyl-4-(3-(pyridin-4-yl)-5-(trifluoromethyl)benzylamino)butan-2-yl)-N3-methyl-N3-((4-methylthiazol-2-yl)methyl)isophthalamide] was less than 300 nM; that for `CN(Cc1nc(CF)cs1)C(=O)c1cccc(C(=O)N[C@@H](Cc2ccccc2)[C@H](O)CNCc2cncc(C(C)(C)F)c2)c1` [Compound 281, N1-((4-(fluoromethyl)thiazol-2-yl)methyl)-N3-((2S,3R)-4-((5-(2-fluoropropan-2-yl)pyridin-3-yl)methylamino)-3-hydroxy-1-phenylbutan-2-yl)-N1-methylisophthalamide] was less than 300 nM; that for `COc1ccc(C(F)(F)F)cc1CNC[C@@H](O)[C@H](Cc1ccccc1)NC(=O)c1cccc(C(=O)N(C)Cc2nc(C)cs2)c1` [Compound 282, N1-((2S,3R)-3-hydroxy-4-(2-methoxy-5-(trifluoromethyl)benzylamino)-1-phenylbutan-2-yl)-N3-methyl-N3-((4-methylthiazol-2-yl)methyl)isophthalamide] was more than 501 nM.
In the case of `CNc1cc(CNC[C@@H](O)[C@H](Cc2ccccc2)NC(=O)c2cccc(C(=O)N(C)Cc3nc(C)cs3)c2)cc(C(F)(F)F)c1` [Compound 283, N1-((2S,3R)-3-hydroxy-4-(3-(methylamino)-5-(trifluoromethyl)benzylamino)-1-phenylbutan-2-yl)-N3-methyl-N3-((4-methylthiazol-2-yl)methyl)isophthalamide] it was less than 300 nM.
In the case of `COC(OC)C(C)c1cncc(CNC[C@@H](O)[C@H](Cc2ccccc2)NC(=O)c2cccc(C(=O)N(C)Cc3nc(C)cs3)c2)c1` (stereo partly drawn) [Compound 284, N1-((2S,3R)-4-((5-(1,1-dimethoxypropan-2-yl)pyridin-3-yl)methylamino)-3-hydroxy-1-phenylbutan-2-yl)-N3-methyl-N3-((4-methylthiazol-2-yl)methyl)isophthalamide] it was less than 300 nM.
Turning to `CC(C)c1cncc(CNC[C@@H](O)[C@H](Cc2ccccc2)NC(=O)c2cccc(C(=O)N(C)Cc3nc(C(F)F)cs3)c2)c1` [Compound 285, N1-((4-(difluoromethyl)thiazol-2-yl)methyl)-N3-((2S,3R)-3-hydroxy-4-((5-isopropylpyridin-3-yl)methylamino)-1-phenylbutan-2-yl)-N1-methylisophthalamide], the Ki was less than 300 nM.
In the case of `CN(Cc1nc(C(F)F)cs1)C(=O)c1cccc(C(=O)N[C@@H](Cc2ccccc2)[C@H](O)CNCc2cncc(C(C)(C)F)c2)c1` [Compound 286, N1-((4-(difluoromethyl)thiazol-2-yl)methyl)-N3-((2S,3R)-4-((5-(2-fluoropropan-2-yl)pyridin-3-yl)methylamino)-3-hydroxy-1-phenylbutan-2-yl)-N1-methylisophthalamide] it was less than 300 nM.
With `Cc1csc(CN(C)C(=O)c2cccc(C(=O)N[C@@H](Cc3ccccc3)[C@H](O)CNCc3cnn(C)c3)c2)n1` [Compound 287, N1-((2S,3R)-3-hydroxy-4-((1-methyl-1H-pyrazol-4-yl)methylamino)-1-phenylbutan-2-yl)-N3-methyl-N3-((4-methylthiazol-2-yl)methyl)isophthalamide], the Ki is less than 300 nM.
The value for `C=C(C)c1cncc(C(=O)NC[C@@H](O)[C@H](Cc2ccccc2)NC(=O)c2cccc(C(=O)N(C)Cc3nc(C)cs3)c2)c1` [Compound 288, N1-((2S,3R)-3-hydroxy-1-phenyl-4-(5-(prop-1-en-2-yl)nicotinamido)butan-2-yl)-N3-methyl-N3-((4-methylthiazol-2-yl)methyl)isophthalamide] was more than 501 nM; that for `Cc1csc(CN(C)C(=O)c2cc(C(=O)N[C@@H](Cc3ccccc3)[C@H](O)CNCc3cccc(C(F)(F)F)c3)cc(-c3ncco3)c2)n1` [Compound 289, N1-((2S,3R)-3-hydroxy-1-phenyl-4-(3-(trifluoromethyl)benzylamino)butan-2-yl)-N3-methyl-N3-((4-methylthiazol-2-yl)methyl)-5-(oxazol-2-yl)isophthalamide] was less than 300 nM.
In the case of `COc1cccc([C@@H](C)NC[C@@H](O)[C@H](Cc2ccccc2)NC(=O)c2cc(C(=O)N(C)Cc3nc(C)cs3)cc(-c3ncco3)c2)c1` [Compound 290, N1-((2S,3R)-3-hydroxy-4-((R)-1-(3-methoxyphenyl)ethylamino)-1-phenylbutan-2-yl)-N3-methyl-N3-((4-methylthiazol-2-yl)methyl)-5-(oxazol-2-yl)isophthalamide] it was less than 300 nM.
The value for `Cc1csc(CN(C)C(=O)c2cccc(C(=O)N[C@@H](Cc3ccccc3)[C@H](O)CNCc3cccc(C(F)(F)F)c3O)c2)n1` [Compound 291, N1-((2S,3R)-3-hydroxy-4-(2-hydroxy-3-(trifluoromethyl)benzylamino)-1-phenylbutan-2-yl)-N3-methyl-N3-((4-methylthiazol-2-yl)methyl)isophthalamide] was more than 501 nM.
Consider `COc1cccc([C@H](C)NC[C@@H](O)[C@H](Cc2ccccc2)NC(=O)c2cc(C(=O)N(C)Cc3nc(C)cs3)cc(-c3ncco3)c2)c1` [Compound 292, N1-((2S,3R)-3-hydroxy-4-((S)-1-(3-methoxyphenyl)ethylamino)-1-phenylbutan-2-yl)-N3-methyl-N3-((4-methylthiazol-2-yl)methyl)-5-(oxazol-2-yl)isophthalamide], for which the Ki is less than 300 nM.
The value for `Cc1csc(CNC[C@@H](O)[C@H](Cc2ccccc2)NC(=O)c2cccc(C(=O)N(C)Cc3nc(C)cs3)c2)n1` [Compound 294, N1-((2S,3R)-3-hydroxy-4-((4-methylthiazol-2-yl)methylamino)-1-phenylbutan-2-yl)-N3-methyl-N3-((4-methylthiazol-2-yl)methyl)isophthalamide] was more than 501 nM.
The value for `Cc1csc(CN(C)C(=O)c2cc(C(=O)N[C@@H](Cc3ccccc3)[C@H](O)CNCc3cncc(C(C)C)c3)cc(-c3cn[nH]c3)c2)n1` [Compound 295, N1-((2S,3R)-3-hydroxy-4-((5-isopropylpyridin-3-yl)methylamino)-1-phenylbutan-2-yl)-N3-methyl-N3-((4-methylthiazol-2-yl)methyl)-5-(1H-pyrazol-4-yl)isophthalamide] was less than 300 nM; that for `COc1cccc(CNC[C@@H](O)[C@H](Cc2ccccc2)NC(=O)c2cccc(C(=O)N(C)Cc3nc(C)cs3)c2O)c1` [Compound 296, 2-hydroxy-N1-((2S,3R)-3-hydroxy-4-(3-methoxybenzylamino)-1-phenylbutan-2-yl)-N3-methyl-N3-((4-methylthiazol-2-yl)methyl)isophthalamide] was more than 501 nM.
The value for `Cc1csc(CN(C)C(=O)c2cccc(C(=O)N[C@@H](Cc3ccccc3)[C@H](O)CNCc3cncc(C(C)C)c3)c2O)n1` [Compound 297, 2-hydroxy-N1-((2S,3R)-3-hydroxy-4-((5-isopropylpyridin-3-yl)methylamino)-1-phenylbutan-2-yl)-N3-methyl-N3-((4-methylthiazol-2-yl)methyl)isophthalamide] was more than 501 nM.
As for `Cc1csc(CN(C)C(=O)c2cc(C(=O)N[C@@H](Cc3ccccc3)[C@H](O)CNCc3cncc(C(C)C)c3)cc(-c3ccc(N(C)C)cc3)c2)n1` [Compound 298, 4′-(dimethylamino)-N3-((2S,3R)-3-hydroxy-4-((5-isopropylpyridin-3-yl)methylamino)-1-phenylbutan-2-yl)-N5-methyl-N5-((4-methylthiazol-2-yl)methyl)biphenyl-3,5-dicarboxamide], the Ki was less than 300 nM.
The value for `Cc1csc(CN(C)C(=O)c2cc(C(=O)N[C@@H](Cc3ccccc3)[C@H](O)CNCc3cncc(C(C)C)c3)cc(-n3ccnc3)c2)n1` [Compound 300, N1-((2S,3R)-3-hydroxy-4-((5-isopropylpyridin-3-yl)methylamino)-1-phenylbutan-2-yl)-5-(1H-imidazol-1-yl)-N3-methyl-N3-((4-methylthiazol-2-yl)methyl)isophthalamide] was less than 300 nM.
The value for `COc1cccc([C@H](C)NC[C@@H](O)[C@H](Cc2ccccc2)NC(=O)c2cc(C(=O)N(C)Cc3nc(C)cs3)cc(C(F)F)c2)c1` [Compound 301, 5-(difluoromethyl)-N1-((2S,3R)-3-hydroxy-4-((S)-1-(3-methoxyphenyl)ethylamino)-1-phenylbutan-2-yl)-N3-methyl-N3-((4-methylthiazol-2-yl)methyl)isophthalamide] was less than 300 nM; that for `Cc1csc(CN(C)C(=O)c2cccc(C(=O)N[C@@H](Cc3ccccc3)[C@H](O)CNCc3cc(C(F)(F)F)ccn3)c2)n1` [Compound 302, N1-((2S,3R)-3-hydroxy-1-phenyl-4-((4-(trifluoromethyl)pyridin-2-yl)methylamino)butan-2-yl)-N3-methyl-N3-((4-methylthiazol-2-yl)methyl)isophthalamide] was less than 300 nM.

The values above are taken from patent US20100286145A1, “ISOPHTHALAMIDE DERIVATIVES INHIBITING BETA-SECRETASE ACTIVITY” (CoMentis, Inc., priority 2007, published 2010).
